Common to all, as to type: biochemical
One assay has as its target T1, PI3Kβ (Homo sapiens, UniProt P42338).
T1 construct: purchased Millipore Ltd (Billerica, Mass.)
The experiment in a line: In vitro determination of the PI3K enzyme inhibitory activity in the cell free assay (ADP-Glo Kinase Assay), PI3Kβ. The note with it: ATP 100 μM, read-out: PI3K beta inhibition. The method in brief: (§1)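 IC50 values came from four-parameter logistic fitting of ADP-Glo luminescence after 60 min kinase reactions at room temperature. ATP (final) was set per isoform: α 50 μM, β 100 μM, γ 30 μM, δ 80 μM. Substrates were phosphatidylinositol and phosphatidylserine (50 μM in 2× Tris pH 7.5 buffer), with human recombinant enzymes.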
(In ADP-Glo the light output rises with the ADP produced.)

The next assay addresses T2, PI3Kδ (Homo sapiens, UniProt O00329).
T2 construct: purchased Millipore Ltd (Billerica, Mass.)
The experiment in a line: In vitro determination of the PI3K enzyme inhibitory activity in the cell free assay (ADP-Glo Kinase Assay), PI3Kδ. The note with it: ATP 80 μM, read-out: PI3K delta inhibition. The method, boiled down: as §1

For a further assay, the target named is T3, PI3Kα (Homo sapiens, UniProt P42336).
T3 construct: purchased Millipore Ltd (Billerica, Mass.)
The assay can be described thus: In vitro determination of the PI3K enzyme inhibitory activity in the cell free assay (ADP-Glo Kinase Assay), PI3Kα. The note with it: ATP 50 μM, read-out: PI3K alpha inhibition. The method in brief:
as §1

In the next assay the target is T4, PI3Kγ (Homo sapiens, UniProt P48736).
T4 construct: purchased Millipore Ltd (Billerica, Mass.)
The assay can be described thus: In vitro determination of the PI3K enzyme inhibitory activity in the cell free assay (ADP-Glo Kinase Assay), PI3Kγ. The note with it: ATP 30 μM, read-out: PI3K gamma inhibition. The method, boiled down:
as §1

A value given as a limit tells only on which side of the number the result lay.

T1 sequence (P42338 whole entry): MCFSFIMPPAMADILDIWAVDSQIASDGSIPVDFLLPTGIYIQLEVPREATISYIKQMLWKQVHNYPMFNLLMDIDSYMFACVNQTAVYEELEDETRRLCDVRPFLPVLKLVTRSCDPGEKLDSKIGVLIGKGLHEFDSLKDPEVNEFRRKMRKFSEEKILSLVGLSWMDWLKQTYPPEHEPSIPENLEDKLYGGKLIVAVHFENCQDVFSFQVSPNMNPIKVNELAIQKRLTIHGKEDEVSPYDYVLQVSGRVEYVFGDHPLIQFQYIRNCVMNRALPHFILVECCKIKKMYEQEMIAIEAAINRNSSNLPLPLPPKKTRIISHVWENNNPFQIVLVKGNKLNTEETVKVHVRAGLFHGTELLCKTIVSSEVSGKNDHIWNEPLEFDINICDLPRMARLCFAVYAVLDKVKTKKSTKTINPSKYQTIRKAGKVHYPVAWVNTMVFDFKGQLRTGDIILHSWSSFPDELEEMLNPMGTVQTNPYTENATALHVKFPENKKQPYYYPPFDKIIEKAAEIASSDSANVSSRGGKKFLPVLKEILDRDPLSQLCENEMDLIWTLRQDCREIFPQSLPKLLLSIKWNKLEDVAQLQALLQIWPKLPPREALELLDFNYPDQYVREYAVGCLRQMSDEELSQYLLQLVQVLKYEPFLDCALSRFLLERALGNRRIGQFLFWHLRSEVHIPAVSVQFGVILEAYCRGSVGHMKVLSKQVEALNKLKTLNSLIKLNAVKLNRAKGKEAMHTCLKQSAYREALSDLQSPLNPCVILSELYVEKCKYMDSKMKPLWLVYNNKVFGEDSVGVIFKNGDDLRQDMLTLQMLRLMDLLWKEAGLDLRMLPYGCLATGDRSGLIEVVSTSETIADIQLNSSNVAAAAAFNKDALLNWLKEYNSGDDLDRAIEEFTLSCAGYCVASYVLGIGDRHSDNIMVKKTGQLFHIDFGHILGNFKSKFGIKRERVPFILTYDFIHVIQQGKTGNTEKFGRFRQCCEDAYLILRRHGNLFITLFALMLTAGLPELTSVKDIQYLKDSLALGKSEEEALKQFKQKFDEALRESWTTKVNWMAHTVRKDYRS
T1 sequence (P27986 whole entry partner): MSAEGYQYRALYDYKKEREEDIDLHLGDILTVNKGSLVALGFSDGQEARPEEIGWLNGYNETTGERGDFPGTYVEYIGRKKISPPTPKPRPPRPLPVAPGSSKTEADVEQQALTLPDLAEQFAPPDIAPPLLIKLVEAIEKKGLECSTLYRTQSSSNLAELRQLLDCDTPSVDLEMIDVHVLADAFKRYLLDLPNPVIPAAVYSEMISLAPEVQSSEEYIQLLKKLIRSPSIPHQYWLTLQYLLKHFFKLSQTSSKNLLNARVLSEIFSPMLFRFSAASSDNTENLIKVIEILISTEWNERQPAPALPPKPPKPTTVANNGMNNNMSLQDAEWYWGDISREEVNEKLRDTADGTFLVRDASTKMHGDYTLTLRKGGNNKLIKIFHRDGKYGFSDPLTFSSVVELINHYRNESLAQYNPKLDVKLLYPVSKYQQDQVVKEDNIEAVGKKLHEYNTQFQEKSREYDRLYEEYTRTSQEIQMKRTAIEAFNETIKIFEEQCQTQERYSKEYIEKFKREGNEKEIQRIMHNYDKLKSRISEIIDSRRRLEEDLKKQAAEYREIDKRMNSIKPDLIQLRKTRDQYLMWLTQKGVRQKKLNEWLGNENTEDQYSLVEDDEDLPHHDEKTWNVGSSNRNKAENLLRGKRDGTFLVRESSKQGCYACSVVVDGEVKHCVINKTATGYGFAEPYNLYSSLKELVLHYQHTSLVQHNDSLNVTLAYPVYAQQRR
T2 sequence (O00329 whole entry): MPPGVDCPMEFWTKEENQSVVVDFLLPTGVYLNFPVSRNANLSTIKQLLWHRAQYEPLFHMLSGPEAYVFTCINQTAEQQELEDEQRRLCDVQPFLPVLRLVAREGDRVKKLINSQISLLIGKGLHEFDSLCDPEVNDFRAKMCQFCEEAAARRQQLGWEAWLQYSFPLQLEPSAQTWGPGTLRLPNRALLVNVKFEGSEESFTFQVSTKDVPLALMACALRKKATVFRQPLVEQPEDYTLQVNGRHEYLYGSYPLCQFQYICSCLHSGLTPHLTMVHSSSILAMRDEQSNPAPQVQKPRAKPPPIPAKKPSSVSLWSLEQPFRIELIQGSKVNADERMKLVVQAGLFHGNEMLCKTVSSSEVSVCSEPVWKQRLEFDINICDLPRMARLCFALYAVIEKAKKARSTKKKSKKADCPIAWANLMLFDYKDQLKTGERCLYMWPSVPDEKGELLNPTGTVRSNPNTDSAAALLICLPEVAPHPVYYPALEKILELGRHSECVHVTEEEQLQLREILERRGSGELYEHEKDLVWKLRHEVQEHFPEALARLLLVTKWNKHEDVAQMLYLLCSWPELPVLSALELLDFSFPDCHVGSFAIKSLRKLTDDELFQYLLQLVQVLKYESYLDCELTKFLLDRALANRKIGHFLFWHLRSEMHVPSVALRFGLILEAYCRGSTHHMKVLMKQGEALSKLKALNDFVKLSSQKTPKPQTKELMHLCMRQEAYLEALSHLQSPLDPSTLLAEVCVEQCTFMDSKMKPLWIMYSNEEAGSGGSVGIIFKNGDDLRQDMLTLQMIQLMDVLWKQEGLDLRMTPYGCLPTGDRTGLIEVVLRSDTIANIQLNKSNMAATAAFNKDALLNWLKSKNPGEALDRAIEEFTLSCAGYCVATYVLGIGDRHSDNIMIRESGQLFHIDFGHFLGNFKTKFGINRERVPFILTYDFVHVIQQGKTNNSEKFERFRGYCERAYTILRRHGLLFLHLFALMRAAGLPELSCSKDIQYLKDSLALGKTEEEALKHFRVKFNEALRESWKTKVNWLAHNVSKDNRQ
T2 sequence (P27986 whole entry partner): as the sequence (P27986 whole entry partner) above
T4 sequence (P48736 whole entry): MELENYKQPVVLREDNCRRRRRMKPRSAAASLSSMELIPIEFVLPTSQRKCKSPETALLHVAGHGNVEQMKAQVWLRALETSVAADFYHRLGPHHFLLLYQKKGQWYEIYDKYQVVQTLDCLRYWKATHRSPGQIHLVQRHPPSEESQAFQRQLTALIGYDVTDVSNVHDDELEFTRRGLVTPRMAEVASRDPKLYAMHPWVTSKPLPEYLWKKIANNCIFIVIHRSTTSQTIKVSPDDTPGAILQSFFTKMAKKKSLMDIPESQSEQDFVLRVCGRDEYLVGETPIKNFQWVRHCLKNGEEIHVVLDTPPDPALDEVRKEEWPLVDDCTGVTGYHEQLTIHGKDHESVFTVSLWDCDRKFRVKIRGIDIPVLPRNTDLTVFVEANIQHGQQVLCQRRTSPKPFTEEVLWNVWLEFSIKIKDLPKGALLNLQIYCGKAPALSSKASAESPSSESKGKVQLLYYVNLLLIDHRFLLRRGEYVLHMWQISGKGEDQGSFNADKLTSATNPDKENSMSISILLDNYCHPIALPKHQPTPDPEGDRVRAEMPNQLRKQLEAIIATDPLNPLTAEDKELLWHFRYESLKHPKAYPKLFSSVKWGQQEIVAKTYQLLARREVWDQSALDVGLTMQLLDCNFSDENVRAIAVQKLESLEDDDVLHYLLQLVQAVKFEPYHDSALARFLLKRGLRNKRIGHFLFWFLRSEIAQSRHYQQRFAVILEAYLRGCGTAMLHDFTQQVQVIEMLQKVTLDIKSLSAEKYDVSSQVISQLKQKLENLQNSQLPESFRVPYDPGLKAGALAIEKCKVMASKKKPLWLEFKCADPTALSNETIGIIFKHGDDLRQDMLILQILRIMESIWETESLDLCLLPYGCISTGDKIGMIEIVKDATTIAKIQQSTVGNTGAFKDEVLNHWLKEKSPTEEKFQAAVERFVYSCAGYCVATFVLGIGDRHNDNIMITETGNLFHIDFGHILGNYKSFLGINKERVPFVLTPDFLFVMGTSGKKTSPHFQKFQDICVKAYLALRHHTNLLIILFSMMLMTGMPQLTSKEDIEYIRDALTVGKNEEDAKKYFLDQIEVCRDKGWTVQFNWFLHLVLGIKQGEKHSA
T3 sequence (P42336 whole entry): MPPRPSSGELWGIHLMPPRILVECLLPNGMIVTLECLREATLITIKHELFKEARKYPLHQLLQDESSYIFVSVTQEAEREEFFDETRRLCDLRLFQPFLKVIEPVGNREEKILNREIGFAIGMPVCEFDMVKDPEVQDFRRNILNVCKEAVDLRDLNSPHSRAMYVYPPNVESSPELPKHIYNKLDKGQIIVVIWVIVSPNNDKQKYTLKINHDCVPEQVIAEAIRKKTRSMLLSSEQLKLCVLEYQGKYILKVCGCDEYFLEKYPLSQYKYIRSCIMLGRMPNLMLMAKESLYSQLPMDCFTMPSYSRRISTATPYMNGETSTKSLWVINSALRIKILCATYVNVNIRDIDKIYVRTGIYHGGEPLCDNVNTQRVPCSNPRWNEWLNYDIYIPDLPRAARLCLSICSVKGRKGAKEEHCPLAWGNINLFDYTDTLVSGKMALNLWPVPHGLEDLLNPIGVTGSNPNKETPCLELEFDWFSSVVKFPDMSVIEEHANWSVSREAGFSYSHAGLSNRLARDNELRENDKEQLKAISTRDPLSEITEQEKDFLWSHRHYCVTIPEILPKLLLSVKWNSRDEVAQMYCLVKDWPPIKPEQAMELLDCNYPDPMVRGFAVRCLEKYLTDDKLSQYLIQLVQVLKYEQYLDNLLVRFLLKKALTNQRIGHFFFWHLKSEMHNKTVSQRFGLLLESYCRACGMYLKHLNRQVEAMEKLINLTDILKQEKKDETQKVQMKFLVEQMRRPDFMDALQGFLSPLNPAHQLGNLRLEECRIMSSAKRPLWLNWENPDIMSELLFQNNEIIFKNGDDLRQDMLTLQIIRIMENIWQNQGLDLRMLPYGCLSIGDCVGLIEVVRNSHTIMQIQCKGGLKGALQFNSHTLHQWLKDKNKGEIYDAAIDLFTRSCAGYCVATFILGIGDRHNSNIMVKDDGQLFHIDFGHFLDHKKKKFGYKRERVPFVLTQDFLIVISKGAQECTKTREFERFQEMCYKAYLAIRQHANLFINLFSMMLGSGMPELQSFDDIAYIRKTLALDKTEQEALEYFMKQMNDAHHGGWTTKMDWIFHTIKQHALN
T3 sequence (P27986 whole entry partner): as the sequence (P27986 whole entry partner) above

`CC(c1cc2ccccn2c1-c1ccc(CN2CCCC2)cn1)n1nc(-c2cc(O)cc(F)c2)c2c(N)ncnc21` (stereo not shown) [Example 113, 3-[4-amino-1-(1-{3-[5-(pyrrolidin-1-ylmethyl)pyridin-2-yl]indolizin-2-yl}ethyl)-1H-pyrazolo[3,4-d]pyrimidin-3-yl]-5-fluorophenol]: the IC50 is 10 to 1000 nM at PI3Kβ, below 10 nM at PI3Kδ, above 1000 nM at PI3Kα and above 1000 nM on PI3Kγ.

Consider `CC(Nc1ncnc(N)c1C#N)c1cc2ccccn2c1-c1cccnc1` (stereo not shown) [Example 34, 4-amino-6-({1-[3-(pyridin-3-yl)indolizin-2-yl]ethyl}amino)pyrimidine-5-carbonitrile], for which the IC50 at PI3Kβ was 10 to 1000 nM; on PI3Kδ, 10 to 1000 nM; at PI3Kα it was above 1000 nM; at PI3Kγ, 10 to 1000 nM.

For `CC(c1cc2ccccn2c1-c1ccccn1)n1nc(-c2ccc(O)c(F)c2)c2c(N)ncnc21` (stereo not shown) [Example 70, 4-(4-amino-1-{1-[3-(pyridin-2-yl)indolizin-2-yl]ethyl}-1H-pyrazolo[3,4-d]pyrimidin-3-yl)-2-fluorophenol], the IC50 was above 1000 nM on PI3Kβ, 10 to 1000 nM at PI3Kδ, above 1000 nM on PI3Kα and 10 to 1000 nM on PI3Kγ.

For the molecule `CC(c1cc2ccccn2c1-c1ccccc1)n1nc(-c2cc(O)cc(F)c2)c2c(N)ncnc21` (stereo not shown) [Example 85, 3-{4-amino-1-[1-(3-phenylindolizin-2-yl)ethyl]-1H-pyrazolo[3,4-d]pyrimidin-3-yl}-5-fluorophenol], the IC50 on PI3Kβ was 10 to 1000 nM; on PI3Kδ it was 10 to 1000 nM; at PI3Kα it was above 1000 nM; at PI3Kγ, above 1000 nM.

With `C[C@H](c1cc2ccccn2c1-c1cccc(CN(C)C)c1)n1nc(-c2cc(O)cc(F)c2)c2c(N)ncnc21` (single isomer, unassigned) [Example 93b, 3-{4-amino-1-[1-(3-{3-[(dimethylamino)methyl]phenyl}indolizin-2-yl)ethyl]-1H-pyrazolo[3,4-d]pyrimidin-3-yl}-5-fluorophenol], the IC50 at PI3Kβ was 10 to 1000 nM; at PI3Kδ it was 10 to 1000 nM; on PI3Kα it was above 1000 nM; at PI3Kγ, above 1000 nM.

Regarding `CC(Nc1ncnc(N)c1C#N)c1cc2c(F)cccn2c1-c1ccccn1` (stereo not shown) [Example 39, 4-amino-6-({1-[8-fluoro-3-(pyridin-2-yl)indolizin-2-yl]ethyl}amino)pyrimidine-5-carbonitrile], the IC50 on PI3Kβ was 10 to 1000 nM; on PI3Kδ, below 10 nM; on PI3Kα, above 1000 nM; at PI3Kγ, above 1000 nM.

On to `C[C@@H](c1cc2ccccn2c1-c1ccccn1)n1nc(-c2cc(O)cc(F)c2)c2c(N)ncnc21` (single isomer, unassigned) [Example 80, 3-(4-amino-1-{1-[3-(pyridin-2-yl)indolizin-2-yl]ethyl}-1H-pyrazolo[3,4-d]pyrimidin-3-yl)-5-fluorophenol], for which the IC50 on PI3Kβ is 10 to 1000 nM; at PI3Kδ, below 10 nM; on PI3Kα, 10 to 1000 nM; on PI3Kγ it was 10 to 1000 nM.

In the case of `C[C@H](c1cc2ccccn2c1-c1ccc(CN2CCN(C)CC2)cn1)n1nc(-c2cc(O)cc(F)c2)c2c(N)ncnc21` (single isomer, unassigned) [Example 114a, 3-{4-amino-1-[1-(3-{5-[(4-methylpiperazin-1-yl)methyl]pyridin-2-yl}indolizin-2-yl)ethyl]-1H-pyrazolo[3,4-d]pyrimidin-3-yl}-5-fluorophenol], the IC50 on PI3Kβ is 10 to 1000 nM; on PI3Kδ, below 10 nM; at PI3Kα, 10 to 1000 nM; on PI3Kγ, 10 to 1000 nM.

With `CC(c1cc2ccccn2c1-c1ccc(CN2CCN(C)CC2)cn1)n1nc(-c2cc(O)cc(F)c2)c2c(N)ncnc21` (stereo not shown) [Example 114, 3-{4-amino-1-[1-(3-{5-[(4-methylpiperazin-1-yl)methyl]pyridin-2-yl}indolizin-2-yl)ethyl]-1H-pyrazolo-[3,4-d]pyrimidin-3-yl}-5-fluorophenol], the IC50 on PI3Kβ is 10 to 1000 nM; at PI3Kδ it was below 10 nM; on PI3Kα, above 1000 nM; at PI3Kγ it was above 1000 nM.

For the molecule `Nc1ncnc2c1ncn2Cc1cc2ccccn2c1-c1ccccc1` [Example 1, 9-[(3-phenylindolizin-2-yl)methyl]-9H-purin-6-amine], the IC50 on PI3Kβ, on PI3Kδ, at PI3Kα and at PI3Kγ was above 1000 nM in each case.

Turning to `CC(c1cc2ccc(C(F)(F)F)cn2c1-c1ccccn1)n1nc(-c2cc(O)cc(F)c2)c2c(N)ncnc21` (stereo not shown) [Example 88, 3-(4-amino-1-{1-[3-(pyridin-2-yl)-6-(trifluoromethyl)indolizin-2-yl]ethyl}-1H-pyrazolo[3,4-d]pyrimidin-3-yl)-5-fluorophenol], the IC50 at PI3Kβ is above 1000 nM; on PI3Kδ, 10 to 1000 nM; on PI3Kα, above 1000 nM; on PI3Kγ it was above 1000 nM.

As for `CC(c1cc2ccccn2c1-c1ccc(OCCC2CCN(C)CC2)nn1)n1nc(-c2cc(O)cc(F)c2)c2c(N)ncnc21` (stereo not shown) [Example 140, 3-{4-amino-1-[1-(3-{6-[2-(1-methylpiperidin-4-yl)ethoxy]pyridazin-3-yl}indolizin-2-yl)-ethyl]-1H-pyrazolo[3,4-d]pyrimidin-3-yl}-5-fluorophenol], the IC50 was 10 to 1000 nM at PI3Kβ, 10 to 1000 nM at PI3Kδ, above 1000 nM at PI3Kα and above 1000 nM on PI3Kγ.

Consider `N#Cc1c(N)ncnc1NCc1cn2ccccc2c1-c1cccc(F)c1` [Example 28, 4-amino-6-({[1-(3-fluorophenyl)indolizin-2-yl]methyl}amino)pyrimidine-5-carbonitrile], for which the IC50 at PI3Kβ is above 1000 nM; on PI3Kδ, 10 to 1000 nM; at PI3Kα, above 1000 nM; on PI3Kγ, above 1000 nM.

Regarding `N#Cc1c(N)ncnc1NCc1cc2ccccn2c1` [Example 31, 4-amino-6-[(indolizin-2-ylmethyl)amino]pyrimidine-5-carbonitrile], the IC50 on PI3Kβ is above 1000 nM; at PI3Kδ it was 10 to 1000 nM; at PI3Kα, above 1000 nM; at PI3Kγ it was above 1000 nM.

As for `CC(c1cc2ccccn2c1-c1ccc(OC2CCN(C)CC2)nn1)n1nc(-c2cc(O)cc(F)c2)c2c(N)ncnc21` (stereo not shown) [Example 139, 3-{4-amino-1-[1-(3-{6-[(1-methylpiperidin-4-yl)oxy]pyridazin-3-yl}indolizin-2-yl)ethyl]-1H-pyrazolo-[3,4-d]pyrimidin-3-yl}-5-fluorophenol], the IC50 at PI3Kβ was 10 to 1000 nM; on PI3Kδ, 10 to 1000 nM; at PI3Kα, above 1000 nM; on PI3Kγ it was above 1000 nM.

For the molecule `N#Cc1c(N)ncnc1NCc1cc2ccccn2c1-c1ccccc1` [Example 22, 4-amino-6-{[(3-phenylindolizin-2-yl)methyl]amino}pyrimidine-5-carbonitrile], the IC50 on PI3Kβ is above 1000 nM; on PI3Kδ, 10 to 1000 nM; on PI3Kα, above 1000 nM; at PI3Kγ, above 1000 nM.

Take `CC(c1cc2ccccn2c1CN1CCC2(CCCN(C)C2)CC1)n1nc(-c2cc(O)cc(F)c2)c2c(N)ncnc21` (stereo not shown) [Example 142, 3-(4-amino-1-{1-[3-({2-methyl-2,9-diazaspiro[5.5]-undecan-9-yl}methyl)indolizin-2-yl]ethyl}-1H-pyrazolo[3,4-d]-pyrimidin-3-yl)-5-fluorophenol]: the IC50 on PI3Kβ was above 1000 nM; on PI3Kδ, 10 to 1000 nM; on PI3Kα, above 1000 nM; at PI3Kγ it was 10 to 1000 nM.

Consider `CC(c1cc2ccccn2c1N1CCN(C)CC1=O)n1nc(-c2cc(O)cc(F)c2)c2c(N)ncnc21` (stereo not shown) [Example 132, 1-(2-{1-[4-amino-3-(3-fluoro-5-hydroxyphenyl)-1H-pyrazolo[3,4-d]pyrimidin-1-yl]-ethyl}indolizin-3-yl)-4-methylpiperazin-2-one], for which the IC50 at PI3Kβ was 10 to 1000 nM; at PI3Kδ it was below 10 nM; on PI3Kα, 10 to 1000 nM; at PI3Kγ it was 10 to 1000 nM.

Turning to `Fc1ccccc1-c1c(CNc2ncnc3[nH]cnc23)cc2ccccn12` [Example 16, N-{[3-(2-fluorophenyl)indolizin-2-yl]methyl}-9H-purin-6-amine], the IC50 at PI3Kβ, on PI3Kδ, at PI3Kα and at PI3Kγ was above 1000 nM each time.

For `CC(c1cc2ccccn2c1-c1cncs1)n1nc(-c2cc(O)cc(F)c2)c2c(N)ncnc21` (stereo not shown) [Example 94, 3-(4-amino-1-{1-[3-(1,3-thiazol-5-yl)indolizin-2-yl]ethyl}-1H-pyrazolo[3,4-d]pyrimidin-3-yl)-5-fluorophenol], the IC50 is 10 to 1000 nM at PI3Kβ, below 10 nM on PI3Kδ, 10 to 1000 nM at PI3Kα and 10 to 1000 nM at PI3Kγ.

On to `CC(c1cc2ccccn2c1CN1CC2(CCN(C)CC2)C1)n1nc(-c2cc(O)cc(F)c2)c2c(N)ncnc21` (stereo not shown) [Example 144, 3-(4-amino-1-{1-[3-({7-methyl-2,7-diazaspiro[3.5]nonan-2-yl}methyl)indolizin-2-yl]ethyl}-1H-pyrazolo[3,4-d]pyrimidin-3-yl)-5-fluorophenol], for which the IC50 at PI3Kβ, at PI3Kδ, at PI3Kα and at PI3Kγ was 10 to 1000 nM throughout.

Regarding `Nc1ncnc2c1c(-c1cc(O)cc(F)c1)nn2Cc1cc2cccnn2c1-c1ccccn1` [Example 100, 3-(4-amino-1-{[7-(pyridin-2-yl)pyrrolo[1,2-b]pyridazin-6-yl]methyl}-1H-pyrazolo[3,4-d]pyrimidin-3-yl)-5-fluorophenol], the IC50 at PI3Kβ is 10 to 1000 nM; on PI3Kδ, below 10 nM; on PI3Kα it was above 1000 nM; on PI3Kγ, 10 to 1000 nM.

The record behind these values is patent US9527869B2, “Indolizine derivatives as phoshoinositide 3-kinases inhibitors” (CHIESI FARMACEUTICI S.P.A., priority 2014, dated 2016).
